Measurements from patent US7612200B2, “Inhibitors of protein kinases” (Locus Pharmaceuticals, Inc., priority 2004, dated 2009).

Experiments:
Type in all cases: biochemical
[1] = target: p38δ (Homo sapiens, UniProt O15264); assay: SAPK4 Kinase Activity (p38δ)
Protocol: SAPK4 Kinase Activity: In a final reaction volume of 25 μl, SAPK4 (h) (5-10 mU) is incubated with 25 mM Tris pH 7.5, 0.02 mM EGTA, 0.33 mg/ml myelin basic protein, 10 mM MgAcetate and [γ-^33P-ATP] (specific activity approx. 500 cpm/pmol, concentration as required). The reaction is initiated by the addition of the MgATP mix. After incubation for 40 minutes at room temperature, the reaction is stopped by the addition of 5 μl of a 3% phosphoric acid solution. 10 μL of the reaction is the spotted onto a P30 filtermat and washed three times for 5 minutes in 75 mM phosphoric acid and once in methanol prior to drying and scintillation counting.

[2] = target: FGFR1 (Homo sapiens, UniProt P11362); assay: Protein kinase inhibition, FGFR1; conditions: Rate (μM) 2, read-out: % Control
Chain of FGFR1 (P11362 22-822): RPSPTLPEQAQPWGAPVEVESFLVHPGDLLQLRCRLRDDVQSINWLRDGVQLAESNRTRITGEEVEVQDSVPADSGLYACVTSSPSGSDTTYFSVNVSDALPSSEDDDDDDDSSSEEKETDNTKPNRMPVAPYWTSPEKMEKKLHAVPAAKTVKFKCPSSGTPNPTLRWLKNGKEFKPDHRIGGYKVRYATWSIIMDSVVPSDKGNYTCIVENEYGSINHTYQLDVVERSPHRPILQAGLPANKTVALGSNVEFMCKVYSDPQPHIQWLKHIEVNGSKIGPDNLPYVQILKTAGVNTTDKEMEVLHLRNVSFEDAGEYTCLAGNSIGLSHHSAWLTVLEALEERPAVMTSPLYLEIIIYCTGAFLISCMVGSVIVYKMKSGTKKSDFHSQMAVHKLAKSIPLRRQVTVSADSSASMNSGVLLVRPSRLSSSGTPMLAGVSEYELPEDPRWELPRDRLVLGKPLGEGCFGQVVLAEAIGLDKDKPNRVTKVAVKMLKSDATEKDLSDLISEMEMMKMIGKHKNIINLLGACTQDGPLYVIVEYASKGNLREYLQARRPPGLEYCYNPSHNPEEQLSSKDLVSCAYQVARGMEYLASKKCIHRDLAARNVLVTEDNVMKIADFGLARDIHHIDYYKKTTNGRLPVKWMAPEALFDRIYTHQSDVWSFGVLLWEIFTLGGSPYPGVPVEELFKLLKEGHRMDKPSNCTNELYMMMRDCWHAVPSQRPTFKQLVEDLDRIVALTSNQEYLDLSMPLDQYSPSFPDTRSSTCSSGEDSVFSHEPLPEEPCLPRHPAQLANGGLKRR

[3] = target: EphA7 (Homo sapiens, UniProt Q15375); assay: Protein kinase inhibition, EphA7; conditions: Rate (μM) 2, read-out: % Control
Chain of EphA7 (Q15375 28-998): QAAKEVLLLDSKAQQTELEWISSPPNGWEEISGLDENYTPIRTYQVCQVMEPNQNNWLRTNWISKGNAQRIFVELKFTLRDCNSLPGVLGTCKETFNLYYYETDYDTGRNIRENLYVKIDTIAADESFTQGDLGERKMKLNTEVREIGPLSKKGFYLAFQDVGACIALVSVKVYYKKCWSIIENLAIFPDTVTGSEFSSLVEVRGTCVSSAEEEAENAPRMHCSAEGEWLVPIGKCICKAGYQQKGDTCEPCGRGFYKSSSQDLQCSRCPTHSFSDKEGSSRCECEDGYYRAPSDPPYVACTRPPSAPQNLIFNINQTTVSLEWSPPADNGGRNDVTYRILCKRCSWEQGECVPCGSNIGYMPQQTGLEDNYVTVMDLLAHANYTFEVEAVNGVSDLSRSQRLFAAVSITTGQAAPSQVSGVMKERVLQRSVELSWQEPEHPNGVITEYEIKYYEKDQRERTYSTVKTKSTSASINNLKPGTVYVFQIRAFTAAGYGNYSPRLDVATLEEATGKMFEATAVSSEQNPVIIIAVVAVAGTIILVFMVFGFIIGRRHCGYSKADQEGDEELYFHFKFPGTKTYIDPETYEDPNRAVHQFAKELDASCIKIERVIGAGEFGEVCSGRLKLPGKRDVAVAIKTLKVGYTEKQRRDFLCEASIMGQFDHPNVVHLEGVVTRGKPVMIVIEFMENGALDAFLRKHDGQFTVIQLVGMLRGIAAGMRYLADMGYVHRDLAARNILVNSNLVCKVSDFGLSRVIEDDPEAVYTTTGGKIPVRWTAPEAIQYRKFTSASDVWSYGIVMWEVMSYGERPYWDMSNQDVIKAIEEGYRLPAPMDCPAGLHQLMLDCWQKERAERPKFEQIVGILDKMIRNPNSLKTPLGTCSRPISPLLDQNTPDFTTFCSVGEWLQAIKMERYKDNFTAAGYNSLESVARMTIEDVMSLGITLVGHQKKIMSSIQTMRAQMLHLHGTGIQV

[4] = target: MuSK (Homo sapiens, UniProt O15146); assay: Protein kinase inhibition, MuSK; conditions: Rate (μM) 2, read-out: % Control
[5] = target: EphA1 (Homo sapiens, UniProt P21709); assay: Protein kinase inhibition, EphA1; conditions: Rate (μM) 2, read-out: % Control
Chain of EphA1 (P21709 26-976): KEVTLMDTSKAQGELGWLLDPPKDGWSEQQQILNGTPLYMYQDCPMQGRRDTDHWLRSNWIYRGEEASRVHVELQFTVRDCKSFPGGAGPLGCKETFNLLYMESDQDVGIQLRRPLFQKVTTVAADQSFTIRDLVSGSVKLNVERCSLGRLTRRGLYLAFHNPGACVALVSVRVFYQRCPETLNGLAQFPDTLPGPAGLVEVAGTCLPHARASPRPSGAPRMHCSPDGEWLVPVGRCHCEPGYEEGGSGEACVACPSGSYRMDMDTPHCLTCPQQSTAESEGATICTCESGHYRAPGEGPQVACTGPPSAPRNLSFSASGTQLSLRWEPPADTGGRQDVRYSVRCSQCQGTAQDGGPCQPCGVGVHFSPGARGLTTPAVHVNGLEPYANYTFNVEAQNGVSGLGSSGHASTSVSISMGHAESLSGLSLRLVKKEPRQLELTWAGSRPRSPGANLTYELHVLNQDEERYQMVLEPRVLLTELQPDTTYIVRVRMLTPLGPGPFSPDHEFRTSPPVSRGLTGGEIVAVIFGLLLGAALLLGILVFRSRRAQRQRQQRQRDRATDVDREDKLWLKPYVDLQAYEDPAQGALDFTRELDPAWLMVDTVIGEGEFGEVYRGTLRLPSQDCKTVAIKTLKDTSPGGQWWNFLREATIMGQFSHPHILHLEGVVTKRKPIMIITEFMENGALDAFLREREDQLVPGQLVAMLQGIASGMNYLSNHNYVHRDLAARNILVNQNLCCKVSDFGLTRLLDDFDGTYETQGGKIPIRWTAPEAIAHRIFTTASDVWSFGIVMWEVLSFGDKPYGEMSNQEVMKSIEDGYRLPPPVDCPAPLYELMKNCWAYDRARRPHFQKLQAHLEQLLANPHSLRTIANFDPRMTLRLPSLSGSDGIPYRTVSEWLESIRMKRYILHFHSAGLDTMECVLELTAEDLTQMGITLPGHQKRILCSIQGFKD

[6] = target: FGFR2 (Homo sapiens, UniProt P21802); assay: Protein kinase inhibition, FGFR2; conditions: Rate (μM) 2, read-out: % Control
[7] = target: Lyn (Homo sapiens, UniProt P07948); assay: Lyn Kinase Activity; conditions: compound at 2 μm
Chain of Lyn (P07948 whole entry): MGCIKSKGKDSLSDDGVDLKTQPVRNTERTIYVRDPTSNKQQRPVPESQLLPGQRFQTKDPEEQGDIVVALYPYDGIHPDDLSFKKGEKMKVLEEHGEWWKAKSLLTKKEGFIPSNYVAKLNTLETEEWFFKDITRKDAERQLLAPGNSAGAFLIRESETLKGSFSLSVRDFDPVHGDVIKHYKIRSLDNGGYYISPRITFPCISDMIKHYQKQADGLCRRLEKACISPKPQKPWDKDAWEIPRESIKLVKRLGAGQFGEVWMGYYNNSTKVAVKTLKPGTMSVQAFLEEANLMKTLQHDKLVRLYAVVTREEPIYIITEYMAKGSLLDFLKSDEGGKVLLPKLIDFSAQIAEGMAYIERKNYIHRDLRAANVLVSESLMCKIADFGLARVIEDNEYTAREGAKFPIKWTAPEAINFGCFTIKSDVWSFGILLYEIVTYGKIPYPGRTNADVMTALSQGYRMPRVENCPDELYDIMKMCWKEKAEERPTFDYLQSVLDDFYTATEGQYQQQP
Protocol: Lyn Kinase Activity: In a final reaction volume of 25 μl, Lyn (h) (5-10 mU) is incubated with 50 mM Tris pH 7.5, 0.1 mM EGTA, 0.1 mM Na3VO4, 0.1% β-mercaptoethanol, 0.1 mg/ml poly(Glue, Tyr) 4:1, 10 mM MgAcetate and [γ-^33P-ATP] (specific activity approx. 500 cpm/pmol, concentration as required). The reaction is initiated by the addition of the MgATP mix. After incubation for 40 minutes at room temperature, the reaction is stopped by the addition of 5 μl of a 3% phosphoric acid solution. 10 μl of the reaction is then spotted onto a Filtermat A and washed three times for 5 minutes in 75 mM phosphoric acid and once in methanol prior to drying and scintillation counting.

[8] = target: Flt1 (Homo sapiens, UniProt P17948); assay: Protein kinase inhibition, Flt1; conditions: Rate (μM) 2, read-out: % Control
Chain of Flt1 (P17948 27-1338): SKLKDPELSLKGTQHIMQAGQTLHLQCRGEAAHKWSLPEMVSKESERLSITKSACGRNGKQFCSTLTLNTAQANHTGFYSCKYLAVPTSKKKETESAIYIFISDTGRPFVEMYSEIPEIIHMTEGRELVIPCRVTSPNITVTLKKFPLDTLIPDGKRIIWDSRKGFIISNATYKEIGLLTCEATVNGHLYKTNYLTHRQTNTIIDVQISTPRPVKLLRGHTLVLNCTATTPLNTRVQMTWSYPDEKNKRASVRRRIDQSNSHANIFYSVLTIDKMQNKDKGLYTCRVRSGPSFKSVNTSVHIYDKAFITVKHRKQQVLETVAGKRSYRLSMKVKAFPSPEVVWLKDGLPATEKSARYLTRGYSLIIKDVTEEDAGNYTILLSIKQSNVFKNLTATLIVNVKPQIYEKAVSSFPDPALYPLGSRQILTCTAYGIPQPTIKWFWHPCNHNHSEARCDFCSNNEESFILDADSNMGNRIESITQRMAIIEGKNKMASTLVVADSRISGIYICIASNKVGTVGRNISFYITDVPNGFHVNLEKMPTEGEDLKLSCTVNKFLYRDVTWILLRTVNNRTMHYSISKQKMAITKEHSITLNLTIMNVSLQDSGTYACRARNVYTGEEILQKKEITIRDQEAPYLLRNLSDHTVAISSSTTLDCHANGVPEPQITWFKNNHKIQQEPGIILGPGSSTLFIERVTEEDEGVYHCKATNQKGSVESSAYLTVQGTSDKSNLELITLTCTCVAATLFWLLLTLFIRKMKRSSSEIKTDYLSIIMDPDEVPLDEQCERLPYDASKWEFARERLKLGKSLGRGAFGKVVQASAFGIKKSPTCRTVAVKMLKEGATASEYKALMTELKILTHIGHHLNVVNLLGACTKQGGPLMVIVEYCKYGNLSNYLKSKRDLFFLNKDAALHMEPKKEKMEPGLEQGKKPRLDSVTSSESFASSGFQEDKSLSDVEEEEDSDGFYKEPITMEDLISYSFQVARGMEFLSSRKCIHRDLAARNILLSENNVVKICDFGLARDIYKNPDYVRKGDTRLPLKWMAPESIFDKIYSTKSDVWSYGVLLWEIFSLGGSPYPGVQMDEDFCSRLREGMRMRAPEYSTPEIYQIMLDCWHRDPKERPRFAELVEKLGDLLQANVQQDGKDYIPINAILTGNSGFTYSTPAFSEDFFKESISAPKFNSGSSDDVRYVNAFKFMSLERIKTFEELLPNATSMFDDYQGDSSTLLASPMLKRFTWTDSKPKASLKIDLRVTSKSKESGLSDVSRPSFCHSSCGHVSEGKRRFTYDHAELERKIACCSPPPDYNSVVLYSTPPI

Chain of p38δ (O15264 whole entry): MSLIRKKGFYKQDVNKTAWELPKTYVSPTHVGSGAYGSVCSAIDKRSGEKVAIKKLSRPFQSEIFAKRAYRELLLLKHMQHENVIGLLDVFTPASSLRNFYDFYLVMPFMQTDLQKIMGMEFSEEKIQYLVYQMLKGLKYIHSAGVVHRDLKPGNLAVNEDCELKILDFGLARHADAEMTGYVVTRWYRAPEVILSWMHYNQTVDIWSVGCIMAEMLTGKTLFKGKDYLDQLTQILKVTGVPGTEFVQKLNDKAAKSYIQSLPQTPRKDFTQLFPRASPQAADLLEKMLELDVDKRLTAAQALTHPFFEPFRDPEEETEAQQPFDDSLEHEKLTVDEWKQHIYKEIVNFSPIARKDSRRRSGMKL

remaining activity at 2 µM ([1]; 40 min, P38d, Human, Rate (μM) 2, read-out: % Control): 76 to 100%
% Inhibition at 2 μm ([1]; p38δ, compound at 2 μm): 76-100%
remaining activity at 2 µM [2]: 76 to 100%
remaining activity at 2 µM [3]: 76 to 100%
remaining activity at 2 µM [4]: 76 to 100%
remaining activity at 2 µM [5]: 76 to 100%
remaining activity at 2 µM [6]: 51 to 75%
% Inhibition at 2 μm [7]: 76-100%
remaining activity at 2 µM [8]: 76 to 100%
SMILES: CC(C)(C)c1cc(C(=O)N2CCS(=O)(=O)CC2)c(NC(=O)Nc2ccc(Oc3ccncc3)cc2)s1 [Example 3, 1-[5-tert-Butyl-3-(1,1-dioxo-1λ^6-thiomorpholine-4-carbonyl)thiophen-2-yl]-3-[4-(pyridin-4-yloxy)phenyl]urea]
